# Results reported in ChEMBL document CHEMBL4325923, “Analogues of the Lignan Pinoresinol as Novel Lead Compounds for P-glycoprotein (P-gp) Inhibitors” (ACS Med Chem Lett, 2018).
# Calls of active or inactive are those of the source. The calls are words filed in the database; no cut-off is given here.
# How the values were obtained:
# [1] = target: T1, ATP-dependent translocase ABCB1 (Homo sapiens, UniProt P08183); assay: (§1) Inhibition of P-gp-mediated doxorubicin efflux in human Lucena 1 cells assessed as ratio of doxorubicin fluorescence intensity in presence of compound to doxorubicin fluorescence intensity in absence of compound at 25 uM preincubated for 1 hr followed by doxorubicin addition measured after 1 hr by flow cytometry; format: cell-based
# T1 sequence (P08183 whole entry): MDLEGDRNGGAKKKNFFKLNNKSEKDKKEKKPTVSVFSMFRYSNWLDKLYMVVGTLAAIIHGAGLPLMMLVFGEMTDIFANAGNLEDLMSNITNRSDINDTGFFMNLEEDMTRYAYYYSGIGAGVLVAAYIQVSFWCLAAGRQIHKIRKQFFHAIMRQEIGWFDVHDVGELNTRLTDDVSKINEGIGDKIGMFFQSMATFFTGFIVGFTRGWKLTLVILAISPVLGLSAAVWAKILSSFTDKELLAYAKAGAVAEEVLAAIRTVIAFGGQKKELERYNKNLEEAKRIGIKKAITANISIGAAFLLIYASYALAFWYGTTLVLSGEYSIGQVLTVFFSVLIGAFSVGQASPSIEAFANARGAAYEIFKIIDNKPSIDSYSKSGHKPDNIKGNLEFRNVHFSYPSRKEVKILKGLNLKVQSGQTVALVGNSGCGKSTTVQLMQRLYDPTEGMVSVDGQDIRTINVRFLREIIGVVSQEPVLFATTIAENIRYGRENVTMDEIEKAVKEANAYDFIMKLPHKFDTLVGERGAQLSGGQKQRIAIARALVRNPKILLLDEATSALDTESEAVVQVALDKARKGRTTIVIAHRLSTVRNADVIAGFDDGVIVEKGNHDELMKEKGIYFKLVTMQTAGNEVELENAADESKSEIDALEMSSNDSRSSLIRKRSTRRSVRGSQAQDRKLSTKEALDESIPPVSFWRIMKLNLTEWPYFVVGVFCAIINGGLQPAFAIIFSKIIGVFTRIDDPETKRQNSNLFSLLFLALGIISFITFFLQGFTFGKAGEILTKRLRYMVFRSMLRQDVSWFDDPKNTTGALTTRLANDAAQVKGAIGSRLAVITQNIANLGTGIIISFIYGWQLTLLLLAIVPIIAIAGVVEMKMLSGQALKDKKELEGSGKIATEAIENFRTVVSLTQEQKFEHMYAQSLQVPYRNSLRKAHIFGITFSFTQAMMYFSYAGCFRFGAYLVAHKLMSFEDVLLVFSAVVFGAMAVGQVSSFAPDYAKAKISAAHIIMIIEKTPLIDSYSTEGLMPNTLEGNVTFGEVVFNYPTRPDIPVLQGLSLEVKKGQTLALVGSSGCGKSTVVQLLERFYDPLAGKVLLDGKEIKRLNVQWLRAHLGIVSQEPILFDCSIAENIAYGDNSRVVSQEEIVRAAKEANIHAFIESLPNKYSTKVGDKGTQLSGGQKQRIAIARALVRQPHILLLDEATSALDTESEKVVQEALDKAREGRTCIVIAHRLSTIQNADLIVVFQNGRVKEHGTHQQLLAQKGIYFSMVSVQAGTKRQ
# [2] = target: T1, ATP-dependent translocase ABCB1; assay: as §1, with “6.25” for “25”; format: cell-based
# [3] = target: T1, ATP-dependent translocase ABCB1; assay: as §1, with “1.56” for “25”; format: cell-based
# [4] = target: T1, ATP-dependent translocase ABCB1; assay: Inhibition of P-gp-mediated doxorubicin efflux in human Lucena 1 cells preincubated for 1 hr followed by doxorubicin addition measured after 1 hr by flow cytometry; format: cell-based
# [5] = tested on: K562; assay: Inhibition of doxorubicin efflux in human K562 cells at 25 uM preincubated for 1 hr followed by doxorubicin addition measured after 1 hr by flow cytometry; format: functional, cell-based
# [6] = target: P-gp (ABCB1) (Homo sapiens, UniProt P08183); assay: Stimulation of P-gp (unknown origin) ATPase activity at 10 uM relative to control; conditions: read-out: Activity
# P-gp (ABCB1), sequence (P08183 whole entry): as above
# [7] = target: T1, ATP-dependent translocase ABCB1; assay: as §1, with “0.78” for “25”; format: cell-based
# [8] = target: T1, ATP-dependent translocase ABCB1; assay: Inhibition of P-gp-mediated Rho-123 efflux in human Lucena 1 cells at 50 uM preincubated for 1 hr followed by Rho-123 addition measured after 1 hr by flow cytometry; format: cell-based
# [9] = tested on: K562; format: functional, cell-based; conditions: Homo sapiens, 3.12 uM
# [10] = tested on: PBMC; assay: Cytotoxicity against human PBMC at 25 uM after 48 hrs by MTT assay relative to control; format: cell-based
# [11] = tested on: PBMC; assay: Cytotoxicity against human PBMC at 6.25 uM after 48 hrs by MTT assay; format: cell-based
# [12] = target: T1, ATP-dependent translocase ABCB1; assay: Inhibition of P-gp-mediated Rho-123 efflux in human Lucena 1 cells at […] preincubated for 1 hr followed by Rho-123 addition measured after 1 hr by flow cytometry; format: cell-based
# [13] = target: T1, ATP-dependent translocase ABCB1; assay: as §1, with “0.39” for “25”; format: cell-based
# [14] = tested on: K562; assay: Potentiation of doxorubicin-induced cytotoxicity in human K562 cells assessed as decrease in doxorubicin IC50 at 1.56 uM after 48 hrs by MTT assay; format: functional, cell-based
SMILES,Ratio [1],Ratio [2],inhibition (INH) [4],inhibition [5],also measured
CC/C(=C(/CC)c1ccc(OCCCS(=O)(=O)[O-])cc1)c1ccc(OCCCS(=O)(=O)[O-])cc1.[Na+].[Na+],1.03,–,–,–,–
CC/C(=C(/CC)c1ccc(OCCCCOC(C)=O)cc1)c1ccc(OCCCCOC(C)=O)cc1,1.18,1.09,Dose-dependent effect,inactive,Ratio [3]: 1.01
CC/C(=C(/CC)c1ccc(OCCOS(=O)(=O)[O-])cc1)c1ccc(OCCOS(=O)(=O)[O-])cc1.[Na+].[Na+],1.04,–,–,–,–
CC/C(=C(/CC)c1ccc(O)cc1)c1ccc(O)cc1 [DIETHYLSTILBESTROL],1.06,1.04,–,inactive,activity at 10 µM [6]: 45%
CC/C(=C(/CC)c1ccc(S(=O)(=O)[O-])cc1)c1ccc(S(=O)(=O)[O-])cc1.[Na+].[Na+],0.99,–,–,–,–
CC/C(=C(/CC)c1ccc(OCCCCS(=O)(=O)[O-])cc1)c1ccc(OCCCCS(=O)(=O)[O-])cc1.[Na+].[Na+],0.95,–,–,–,–
CC/C(=C(/CC)c1ccc(OCCCO)cc1)c1ccc(OCCCO)cc1,1.23,1.09,Dose-dependent effect,inactive,Ratio [3]: 1.05; Ratio [7]: 0.98; inhibition (INH) [8]: Active; Activity [9]: inactive; Activity [10]: 34.67%; Activity [11]: Non-Toxic
CC/C(=C(\c1ccccc1)c1ccc(OCCN(C)C)cc1)c1ccccc1 [TAMOXIFEN],1.13,–,–,–,INH [12]: Active
CC/C(=C(/CC)c1ccc(OCCCCO)cc1)c1ccc(OCCCCO)cc1,1.32,1.08,Dose-dependent effect,inactive,Ratio [3]: 1.1; Ratio [7]: 0.99; Ratio [13]: 1; INH [12]: Active; Activity [14]: inactive; Activity [10]: 41%; Activity [11]: Non-Toxic

# The next lines start with results.
Ratio [1],Ratio [2],inhibition (INH) [4],SMILES,inhibition [5],also measured
1.21,1.06,Dose-dependent effect,CC/C(=C(/CC)c1ccc(OCCCOC(C)=O)cc1)c1ccc(OCCCOC(C)=O)cc1,inactive,Ratio [3]: 1.02
1.19,1.09,Dose-dependent effect,CC/C(=C(/CC)c1ccc(OC)cc1)c1ccc(OC)cc1,inactive,–
0.72,–,–,Cc1c(-c2ccc(O)c(O)c2)[nH]c2ccc(O)cc12,–,–
0.96,–,–,COc1cc([C@@H]2CC(O)=Nc3c2cnn3Cc2cccs2)ccc1O,–,–
1.21,1.12,Dose-dependent effect,CC/C(=C(/CC)c1ccc(OCCOC(C)=O)cc1)c1ccc(OCCOC(C)=O)cc1,inactive,Ratio [3]: 1.03
0.8,–,–,Cc1c(-c2ccc(O)cc2)[nH]c2ccc(O)cc12,–,–
0.9,–,–,COc1ccc2[nH]c(-c3ccc(OC)c(OC)c3)c(C)c2c1,–,–
1.11,–,–,COc1ccc(-n2nc(C)c3c2NC(=O)C[C@@H]3c2ccc(O)c(OC)c2)cc1,–,–
1.16,1.08,Dose-dependent effect,CC/C(=C(/CC)c1ccc(OCCO)cc1)c1ccc(OCCO)cc1,inactive,–
0.75,–,–,Cc1c(-c2ccc(O)c(O)c2)n(C)c2ccc(O)cc12,–,–
1.01,–,–,Cc1c(-c2ccc(O)c(O)c2)[nH]c2ccc(OCCO)cc12,–,–
